Test results published in patent publication US12448373B2, “Azetidinyl-acetamides as CXCR7 inhibitors” (CHEMOCENTRYX, INC., priority 2021, dated 2025).

Biological target: T1, CXCR7 (Homo sapiens, UniProt P25106)
T1 construct: expressed in transfected cells; host or cells: CHO cells (CHO-CXCR7), transgenes maintained with Hygromycin B and G418
Assay: CXCR7 β-arrestin recruitment assay in CHO-CXCR7 cells (ProLink/EA β-galactosidase complementation), induced by human SDF-1a
Type: cell-based
Conditions: assay buffer, SDF-1a at EC50 concentration
Protocol: CXCR7 is fused in frame with a small enzyme donor fragment ProLink and co-expressed in CHO cells stably expressing a fusion protein of β-arrestin and the larger, N-terminal deletion mutant of β-galactosidase (called enzyme acceptor or EA). Activation of the CXCR7 stimulates binding of β-arrestin to the ProLink-tagged CXCR7 and forces complementation of the two enzyme fragments, resulting in the formation of an active β-galactosidase enzyme. The β-galactosidase enzyme activity is measured with a substrate that generates fluorescence.
CHO-CXCR7 cells (0.22×10^6/mL) were cultured in growth medium (Ham's F-12 medium with 10% fetal bovine serum (FBS)), Hygromycin B (200 ug/mL) and G418 (250 ug/mL) were used to maintain the transgenes. The day before the assay, the cells were detached from culture dishes with 0.25% trypsin-EDTA (Corning, Catalog No. 25-053-CI), plated into 96 well plate (2.2×10^5 cells/mL, 100 μL/well) and incubated overnight at 37° C. with 5% CO2. On the day of the assay, cell culture medium was removed and 100 uL of assay buffer (PBS or FBS) was added to each well. 1 μL of compound that were serially diluted in DMSO was added to each well. 5 μL of human SDF-la (Pepro Tech, Catalog No. 300-28A, at EC50 concentration pre-determined on the same day) was then added and mixed to induce CXCR7-mediated β-arrestin recruitment. The plates were incubated for 1.5 hours at 37° C. The assay buffer was removed, 100 μL substrate solution was added and the reaction was carried out at 37° C. for 30 minutes. The substrate solution was prepared by mixing 100 mL Phosphate Buffer (1M, Sigma, Catalog No. P3619-1GA), 100 mL 10% Triton X 100 (Sigma, Catalog No. T8787.), 5 mL MgCl2 (1M, Sigma, Catalog No. M1028), 1.5 mL, β-mercaptoethanol (Gibco, Catalog No. 21985-023.). 3-carboxyumbelliferyl β-D-galactopyranoside (ThermoFisher Scientific, Catalo No. F2905) was added at 0.4 mM right before use. The reaction was then stopped by adding 50 μL of Stop Solution (2.1% w/v Na2CO3) to each well. Fluorescence intensity was measured with a FlexStation 3 microplate reader (Molecular Devices) with the following setting—excitation: 360 nm, emission: 465 nm, manual Gain: 55. IC50 values were calculated with GraphPad Prism using 3 parameter nonlinear regression.

T1 sequence (P25106 whole entry): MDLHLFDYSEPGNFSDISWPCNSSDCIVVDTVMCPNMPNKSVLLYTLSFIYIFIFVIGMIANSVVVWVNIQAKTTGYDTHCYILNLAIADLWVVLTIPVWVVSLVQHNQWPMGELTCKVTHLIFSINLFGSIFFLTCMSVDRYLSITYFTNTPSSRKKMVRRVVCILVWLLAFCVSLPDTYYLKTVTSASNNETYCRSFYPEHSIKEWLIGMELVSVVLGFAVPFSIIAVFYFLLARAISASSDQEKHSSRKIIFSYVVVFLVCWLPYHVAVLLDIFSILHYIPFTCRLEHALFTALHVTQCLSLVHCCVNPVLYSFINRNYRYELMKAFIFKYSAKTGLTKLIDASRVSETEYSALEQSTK

Structure (SMILES) | IC50
CC(C)(O)CN1CC(CC(=O)NC(C)(C)c2cccc(F)c2)(NC(=O)c2cc(-c3ccc(F)cc3F)on2)C1 [Example 1.251] | 5 to 100 nM
CC(C)(NC(=O)CC1(NC(=O)c2cc(-c3ccc(F)cc3F)on2)CN(C2CCC3(CCC3)CC2)C1)c1ccccn1 [Example 1.296] | 100 to 1000 nM
CC(C)(NC(=O)CC1(NC(=O)c2nnc(-c3ccc(F)cc3F)s2)CN(CC2CC2)C1)c1cccc(Cl)c1 [Example 1.038] | 5 to 100 nM
CC(C)(O)CN1CC(CC(=O)NC(C)(C)c2ccc(F)cc2F)(NC(=O)c2cc(-c3ccc(F)cc3F)on2)C1 [Example 1.264] | 1000 to 20000 nM
C[C@@H](NC(=O)CC1(NC(=O)c2cc(-c3ccc(F)cc3F)on2)CN(CC2CC2)C1)c1ccccn1 [Example 1.323] | 100 to 1000 nM
Cn1ccc2c(C(C)(C)NC(=O)CC3(NC(=O)c4cc(-c5ccc(F)cc5F)on4)CN([C@H]4CC[C@@](C)(O)CC4)C3)cccc21 [Example 1.125] | 5 to 100 nM
CC(C)(O)CN1CC(CC(=O)NC(C)(C)c2cccc(Cl)c2)(NC(=O)c2cc(-c3ccc(F)cc3F)on2)C1 [Example 1.178] | < 5 nM
CC(C)(NC(=O)CC1(NC(=O)c2cc(-c3ccc(F)cc3F)on2)CN([C@H]2CC[C@](C)(O)CC2)C1)c1c(F)cccc1F [Example 1.258] | 100 to 1000 nM
CC(C)(NC(=O)CC1(NC(=O)c2nnc(-c3ccc(F)cc3F)s2)CN([C@H]2CC[C@](C)(O)CC2)C1)c1cc(Cl)cc(Cl)c1 [Example 1.007] | < 5 nM
CC(C)(NC(=O)CC1(NC(=O)c2cc(-c3ccc(F)cc3F)on2)CN(c2ccccn2)C1)c1ccccn1 [Example 1.314] | 1000 to 20000 nM
CC(C)(NC(=O)CC1(NC(=O)c2cc(-c3ccc(F)cc3F)n[nH]2)CN([C@H]2CC[C@@](C)(O)CC2)C1)c1cccc(Cl)c1 [Example 1.053] | 1000 to 20000 nM
COC1(C)CCC(N2CC(CC(=O)NC(C)(C)c3ccccn3)(NC(=O)c3cc(-c4ccc(F)cc4F)on3)C2)CC1 (centres unmarked) [Example 1.285] | 5 to 100 nM
CC(C)(O)CCN1CC(CC(=O)NC(C)(C)c2ccccn2)(NC(=O)c2cc(-c3ccc(F)cc3F)on2)C1 [Example 1.230] | 1000 to 20000 nM
Cc1cc(C2CC2)cc(C(C)(C)NC(=O)CC2(NC(=O)c3nnc(-c4ccc(F)cc4F)s3)CN([C@H]3CC[C@](C)(O)CC3)C2)n1 [Example 1.350] | 5 to 100 nM
CC(C)(NC(=O)CC1(NC(=O)c2cc(-c3ccc(F)cc3F)on2)CN(C2CCC3(CC2)COC3)C1)c1ccccn1 [Example 1.294] | < 5 nM
CC(C)(NC(=O)CC1(NC(=O)c2cc(-c3ccc(F)cc3F)on2)CN([C@H]2CC[C@](C)(O)CC2)C1)c1cc(Cl)ccc1F [Example 1.133] | < 5 nM
CC(C)(NC(=O)CC1(NC(=O)c2cc(-c3ccc(F)cc3F)on2)CN([C@H]2CC[C@](C)(O)CC2)C1)c1ncccc1F [Example 1.021] | 5 to 100 nM
CC(C)(NC(=O)CC1(NC(=O)c2nnc(-c3ccc(F)cc3F)s2)CN([C@H]2CC[C@](C)(O)CC2)C1)c1ncccc1F [Example 1.022] | 5 to 100 nM
COc1ccc(C(C)(C)NC(=O)CC2(NC(=O)c3cc(-c4ccc(F)cc4F)on3)CN([C@H]3CC[C@](C)(O)CC3)C2)c(F)c1 [Example 1.213] | 100 to 1000 nM
CC(C)(O)CN1CC(CC(=O)NC(C)(C)c2cc(Cl)ccc2F)(NC(=O)c2cc(-c3ccc(F)cc3F)on2)C1 [Example 1.134] | 5 to 100 nM
CC(C)(NC(=O)CC1(NC(=O)c2cn(-c3ccc(F)cc3F)nn2)CN([C@H]2CC[C@@](C)(O)CC2)C1)c1cccc(Cl)c1 [Example 1.066] | 5 to 100 nM
CCC(C)CN1CC(CC(=O)NC(C)(C)c2ccccn2)(NC(=O)c2cc(-c3ccc(F)cc3F)on2)C1 (centres unmarked) [Example 1.010] | < 5 nM
CC(C)(NC(=O)CC1(NC(=O)c2cc(-c3ccc(F)cc3F)on2)CN([C@H]2CC[C@@](C)(O)CC2)C1)c1cccc(C2CC2)c1 [Example 1.143] | 5 to 100 nM
Cc1cccc(C(C)(C)NC(=O)CC2(NC(=O)c3cc(-c4ccc(F)cc4F)on3)CN([C@H]3CC[C@](C)(O)CC3)C2)n1 [Example 1.121] | < 5 nM
CC(C)(NC(=O)CC1(NC(=O)c2cc(-c3ccc(F)cc3F)on2)CN([C@H]2CC[C@@](C)(O)CC2)C1)c1ccccn1 [Example 1.034] | 100 to 1000 nM

Structure (SMILES) | IC50
CC(C)(NC(=O)CC1(NC(=O)c2cc(-c3ccc(F)cc3F)on2)CN([C@H]2CC[C@](C)(O)CC2)C1)c1ccnc(C(F)(F)F)c1 [Example 1.166] | 5 to 100 nM
CC(CN1CC(CC(=O)NC(C)(C)c2ccccn2)(NC(=O)c2cc(-c3ccc(F)cc3F)on2)C1)C(F)(F)F (centres unmarked) [Example 1.018] | 100 to 1000 nM
C[C@]1(O)CC[C@@H](N2CC(CC(=O)NCc3c[nH]c4ccccc34)(NC(=O)c3cc(-c4ccc(F)cc4F)on3)C2)CC1 [Example 1.278] | 1000 to 20000 nM
Cc1cc(C)nc(C(C)(C)NC(=O)CC2(NC(=O)c3nnc(-c4ccc(F)cc4F)s3)CN([C@H]3CC[C@](C)(O)CC3)C2)c1 [Example 1.031] | < 5 nM
CC(C)(NC(=O)CC1(NC(=O)c2cc(-c3ccc(F)cc3F)on2)CN([C@H]2CC[C@@](C)(O)CC2)C1)c1ccnc(C2CC2)c1 [Example 1.146] | 5 to 100 nM
CC(C)(NC(=O)CC1(NC(=O)c2cc(-c3ccc(F)cc3F)on2)CN([C@H]2CC[C@@](C)(O)CC2)C1)c1ccccc1 [Example 1.267] | < 5 nM
Cc1ccc(C(C)(C)NC(=O)CC2(NC(=O)c3cc(-c4ccc(F)cc4F)on3)CN([C@H]3CC[C@](C)(O)CC3)C2)cc1C(F)(F)F [Example 1.262] | 100 to 1000 nM
Cc1cc(C)nc(C(C)(C)NC(=O)CC2(NC(=O)c3cn(-c4ccc(F)cc4F)nn3)CN(C3CCCCC3)C2)n1 [Example 1.071] | 5 to 100 nM
CC(C)(NC(=O)CC1(NC(=O)c2cc(-c3ccc(F)cc3F)on2)CN([C@H]2CC[C@@](C)(O)CC2)C1)c1cc(F)cc(F)c1 [Example 1.152] | < 5 nM
Cc1cc(C)nc(C(C)(C)NC(=O)CC2(NC(=O)c3nnc(-c4ccc(F)cc4F)s3)CN(C3CCCCC3)C2)n1 [Example 1.070] | < 5 nM
CC(C)(NC(=O)CC1(NC(=O)c2cc(-c3ccc(F)cc3F)on2)CN([C@H]2CC[C@](C)(O)CC2)C1)c1ccc(Cl)cc1 [Example 1.250] | 100 to 1000 nM
CC(C)(NC(=O)CC1(NC(=O)c2noc(-c3ccc(F)cc3F)n2)CN([C@H]2CC[C@](C)(O)CC2)C1)c1ccccc1 [Example 1.078] | 100 to 1000 nM
CC(C)(NC(=O)CC1(NC(=O)c2cc(-c3ccc(F)cc3F)on2)CN([C@H]2CC[C@](C)(O)CC2)C1)c1ccncn1 [Example 1.181] | 5 to 100 nM
C[C@]1(O)CC[C@H](N2CC(CC(=O)NCc3ccccc3)(NC(=O)c3cc(-c4ccc(F)cc4F)on3)C2)CC1 [Example 1.128] | 1000 to 20000 nM
CC(C)(NC(=O)CC1(NC(=O)c2cc(-c3ccc(F)cc3F)on2)CN([C@H]2CC[C@@](C)(O)CC2)C1)c1ccc(Cl)cc1 [Example 1.249] | 5 to 100 nM
CC1(CN2CC(CC(=O)NC(C)(C)c3ccccn3)(NC(=O)c3cc(-c4ccc(F)cc4F)on3)C2)COC1 [Example 1.224] | 5 to 100 nM
Cc1cccc(C(C)(C)NC(=O)CC2(NC(=O)c3cc(-c4ccc(F)cc4F)on3)CN(C3CCCCC3)C2)n1 [Example 1.293] | < 5 nM
CC(C)(NC(=O)CC1(NC(=O)c2cc(-c3ccc(F)cc3F)on2)CN(CC2COC2)C1)c1cccc(Cl)c1 [Example 1.135] | 100 to 1000 nM
Cc1cc(C)nc(C(C)(C)NC(=O)CC2(NC(=O)c3cc(-c4ccc(F)cc4F)on3)CN(C3CCOC(C)(C)C3)C2)n1 (centres unmarked) [Example 1.359] | 5 to 100 nM
Cc1cccc(C(C)(C)NC(=O)CC2(NC(=O)c3nnc(-c4ccc(F)cc4F)s3)CN([C@H]3CC[C@](C)(O)CC3)C2)n1 [Example 1.032] | < 5 nM
CC(C)(NC(=O)CC1(NC(=O)c2cc(-c3ccc(F)cc3F)on2)CN([C@H]2CC[C@](C)(O)CC2)C1)c1ccc(F)cc1 [Example 1.260] | 5 to 100 nM
CC(C)(NC(=O)CC1(NC(=O)c2cc(-c3ccc(F)cc3F)on2)CN([C@H]2CC[C@@](C)(O)CC2)C1)c1ccc(F)cc1 [Example 1.259] | 5 to 100 nM
O=C(CC1(NC(=O)c2cc(-c3ccc(F)cc3F)on2)CN(C2CCOCC2)C1)NC1(c2ncccn2)CC1 [Example 1.328] | 100 to 1000 nM
Cc1cc(C(C)(C)NC(=O)CC2(NC(=O)c3cc(-c4ccc(F)cc4F)on3)CN(CC(C)C)C2)ccn1 [Example 1.122] | 5 to 100 nM
C[C@]1(O)CC[C@H](N2CC(CC(=O)NC3(c4ccccn4)CC3)(NC(=O)c3cc(-c4ccc(F)cc4F)on3)C2)CC1 [Example 1.191] | 5 to 100 nM
